Results as given in patent US12606568B2, “SMARCA degraders and uses thereof” (Kymera Therapeutics, Inc., priority 2020, dated 2026).

Legend:
Type in all cases: cell-based
[1] = molecular target: T1, SMARCA4 (Homo sapiens, UniProt P51532); assay: SMARCA4 Western blot MV4-11 degradation; settings: for SMARCA4 MSD MV411 degradation 24 h: average Dmax % / DC50: MV4-11 cells; for DC50 / Dmax: 24 h; for DC50: read-out: SMARCA4 MSD MV411 degradation 24 h: Mean external-Abs DC50; for Dmax: MV4-11, MV4-11 cells, read-out: SMARCA4 MSD MV411 degradation 24 h: average Dmax %
T1 construct: SMARCA2 and SMARCA4 protein degradation in MV4-11 cells; endogenous in cells; host or cells: MV4-11

[2] = molecular target: T2, SMARCA2 (Homo sapiens, UniProt P51531); assay: MSD SMARCA2 degradation in A549 cell line; design: endogenous in cells; settings: for SMARCA2 MSD A549 degradation 24 h: Average Dmax % / DC50: A549 cells; for DC50 / Dmax: 24 h; for DC50: read-out: SMARCA2 MSD A549 degradation 24 h: Average external-Abs DC50; for Dmax: A549, A549 cells
Outline: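 A549 cells treated 24 h with compound, 3-fold series 1000 nM down to 0.152 nM plus DMSO. RIPA lysates captured on MSD plates, probed with rabbit anti-SMARCA2/BRM (1 µg/ml) then SULFO-TAG anti-rabbit, electrochemiluminescence read. DC50 and 24 h Dmax reported as letter bins.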

[3] = molecular target: T2, SMARCA2; assay: SMARCA2 Western blot MV4-11 degradation; design: SMARCA2 and SMARCA4 protein degradation in MV4-11 cells; endogenous in cells; host or cells: MV4-11; settings: for SMARCA2 MSD MV411 degradation 24 h: average Dmax % / DC50: MV4-11 cells; for DC50 / Dmax: 24 h; for DC50: read-out: SMARCA2 MSD MV411 degradation 24 h: Mean external-Abs DC50; for Dmax: MV4-11, MV4-11 cells, read-out: SMARCA2 MSD MV411 degradation 24 h: average Dmax %

T1 sequence (P51532 whole entry): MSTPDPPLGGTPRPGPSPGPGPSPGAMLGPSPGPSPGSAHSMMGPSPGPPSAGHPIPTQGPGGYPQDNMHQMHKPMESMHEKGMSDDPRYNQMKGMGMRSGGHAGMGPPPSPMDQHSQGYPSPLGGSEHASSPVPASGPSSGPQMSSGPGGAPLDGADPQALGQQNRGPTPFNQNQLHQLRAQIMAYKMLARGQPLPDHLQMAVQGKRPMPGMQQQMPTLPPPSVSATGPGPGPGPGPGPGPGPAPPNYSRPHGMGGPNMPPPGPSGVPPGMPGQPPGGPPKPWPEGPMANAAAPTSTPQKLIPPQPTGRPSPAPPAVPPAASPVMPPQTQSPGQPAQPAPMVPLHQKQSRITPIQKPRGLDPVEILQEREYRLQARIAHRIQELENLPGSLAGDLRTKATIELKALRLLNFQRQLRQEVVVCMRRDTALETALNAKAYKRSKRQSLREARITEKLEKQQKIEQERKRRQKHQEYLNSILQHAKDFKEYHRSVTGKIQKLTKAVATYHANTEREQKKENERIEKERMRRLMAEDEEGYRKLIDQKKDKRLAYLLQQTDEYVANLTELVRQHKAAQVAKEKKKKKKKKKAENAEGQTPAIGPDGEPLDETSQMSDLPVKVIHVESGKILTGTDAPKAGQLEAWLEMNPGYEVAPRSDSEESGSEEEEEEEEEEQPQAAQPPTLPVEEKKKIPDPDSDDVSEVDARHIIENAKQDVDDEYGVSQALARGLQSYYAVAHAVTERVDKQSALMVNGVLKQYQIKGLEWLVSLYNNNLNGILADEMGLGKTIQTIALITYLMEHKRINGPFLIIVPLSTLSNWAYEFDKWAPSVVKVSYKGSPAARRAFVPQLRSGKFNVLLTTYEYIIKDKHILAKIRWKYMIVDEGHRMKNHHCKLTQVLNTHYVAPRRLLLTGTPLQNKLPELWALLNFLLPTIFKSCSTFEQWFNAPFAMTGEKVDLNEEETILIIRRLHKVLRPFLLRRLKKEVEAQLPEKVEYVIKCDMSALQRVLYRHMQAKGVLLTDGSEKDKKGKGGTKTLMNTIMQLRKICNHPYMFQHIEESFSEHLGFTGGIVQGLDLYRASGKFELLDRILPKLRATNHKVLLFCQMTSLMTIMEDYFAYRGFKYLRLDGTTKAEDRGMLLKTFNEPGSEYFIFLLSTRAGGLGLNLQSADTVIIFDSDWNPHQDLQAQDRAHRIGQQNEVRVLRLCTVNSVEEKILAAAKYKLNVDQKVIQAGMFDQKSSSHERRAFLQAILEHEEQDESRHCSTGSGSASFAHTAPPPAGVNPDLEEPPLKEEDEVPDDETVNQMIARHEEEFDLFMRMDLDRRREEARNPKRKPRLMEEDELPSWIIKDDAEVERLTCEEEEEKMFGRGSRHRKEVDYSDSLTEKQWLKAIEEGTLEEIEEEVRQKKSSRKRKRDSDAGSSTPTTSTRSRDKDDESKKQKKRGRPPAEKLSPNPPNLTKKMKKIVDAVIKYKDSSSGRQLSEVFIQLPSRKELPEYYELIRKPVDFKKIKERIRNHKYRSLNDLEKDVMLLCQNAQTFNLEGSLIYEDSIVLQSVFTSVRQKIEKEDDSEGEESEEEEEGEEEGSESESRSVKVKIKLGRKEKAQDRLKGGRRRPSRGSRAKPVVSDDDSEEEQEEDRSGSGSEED
T2 sequence (P51531 whole entry): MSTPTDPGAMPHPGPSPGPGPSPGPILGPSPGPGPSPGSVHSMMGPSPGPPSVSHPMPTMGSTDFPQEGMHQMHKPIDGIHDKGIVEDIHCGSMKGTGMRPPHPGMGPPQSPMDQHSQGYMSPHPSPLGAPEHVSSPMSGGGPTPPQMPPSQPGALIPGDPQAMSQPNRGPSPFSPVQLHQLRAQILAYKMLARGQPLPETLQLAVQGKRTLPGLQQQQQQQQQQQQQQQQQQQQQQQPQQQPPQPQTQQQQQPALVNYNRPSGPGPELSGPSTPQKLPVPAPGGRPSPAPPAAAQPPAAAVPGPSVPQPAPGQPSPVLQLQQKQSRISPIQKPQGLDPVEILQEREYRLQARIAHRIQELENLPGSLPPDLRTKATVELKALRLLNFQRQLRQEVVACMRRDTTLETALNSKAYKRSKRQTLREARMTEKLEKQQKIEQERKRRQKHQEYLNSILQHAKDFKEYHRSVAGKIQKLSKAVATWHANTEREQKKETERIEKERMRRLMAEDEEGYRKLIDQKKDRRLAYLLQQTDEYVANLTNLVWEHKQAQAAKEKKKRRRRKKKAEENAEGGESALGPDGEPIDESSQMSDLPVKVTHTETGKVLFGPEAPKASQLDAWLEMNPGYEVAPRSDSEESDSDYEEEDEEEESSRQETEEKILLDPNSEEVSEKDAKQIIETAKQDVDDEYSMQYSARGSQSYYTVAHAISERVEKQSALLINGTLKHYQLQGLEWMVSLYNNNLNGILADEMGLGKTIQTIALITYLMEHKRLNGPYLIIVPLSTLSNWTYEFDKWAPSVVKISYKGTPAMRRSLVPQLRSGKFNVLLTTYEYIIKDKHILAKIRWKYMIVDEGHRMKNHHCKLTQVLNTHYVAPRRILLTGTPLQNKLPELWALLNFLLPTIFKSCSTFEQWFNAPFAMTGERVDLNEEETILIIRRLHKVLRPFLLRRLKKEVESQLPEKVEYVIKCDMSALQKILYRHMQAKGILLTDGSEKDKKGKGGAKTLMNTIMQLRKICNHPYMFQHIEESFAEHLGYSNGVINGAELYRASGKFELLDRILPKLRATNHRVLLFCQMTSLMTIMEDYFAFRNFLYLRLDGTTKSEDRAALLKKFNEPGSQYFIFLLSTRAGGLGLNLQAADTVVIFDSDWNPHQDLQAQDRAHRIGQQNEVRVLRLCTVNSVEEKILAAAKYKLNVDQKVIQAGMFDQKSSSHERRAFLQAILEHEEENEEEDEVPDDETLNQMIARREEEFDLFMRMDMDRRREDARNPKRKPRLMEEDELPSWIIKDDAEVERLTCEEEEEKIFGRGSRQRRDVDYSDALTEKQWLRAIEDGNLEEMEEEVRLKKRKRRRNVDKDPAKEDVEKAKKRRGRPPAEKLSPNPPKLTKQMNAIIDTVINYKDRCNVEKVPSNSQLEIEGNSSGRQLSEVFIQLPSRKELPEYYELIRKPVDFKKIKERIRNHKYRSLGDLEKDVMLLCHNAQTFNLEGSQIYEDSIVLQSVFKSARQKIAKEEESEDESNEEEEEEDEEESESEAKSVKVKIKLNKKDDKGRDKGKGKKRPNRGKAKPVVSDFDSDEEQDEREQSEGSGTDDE

| SMILES | SMARCA4 MSD MV411 degradation 24 h: average Dmax % [1] | DC50 [1] [nM] | SMARCA2 MSD A549 degradation 24 h: Average Dmax % [2] | DC50 [2] [nM] | SMARCA2 MSD MV411 degradation 24 h: average Dmax % [3] | DC50 [3] [nM] | Dmax [1] [%] | Dmax [2] [%] | Dmax [3] [%] |
| --- | --- | --- | --- | --- | --- | --- | --- | --- | --- |
| Cc1ncsc1-c1ccc([C@H](C)NC(=O)[C@@H]2C[C@@H](O)CN2C(=O)[C@@H](NC(=O)[C@H]2CCC3(CC2)C[C@H](N2CCC(c4cnc(N5C6CCC5CN(c5cc(-c7ccccc7O)nnc5N)C6)nc4)CC2)C3)C(C)(C)C)cc1 (stereo partly drawn) [I-16, (2S,4R)-1-((2S)-2-(2-(4-(2-(3-(3-amino-6-(2-hydroxyphenyl)pyridazin-4-yl)-3,8-diazabicyclo[3.2.1]octan-8-yl)pyrimidin-5-yl)piperidin-1-yl)spiro[3.5]nonane-7-carboxamido)-3,3-dimethylbutanoyl)-4-hydroxy-N—((S)-1-(4-(4-methylthiazol-5-yl)phenyl)ethyl)pyrrolidine-2-carboxamide] | B (B (>70-90% degradation)) | < 100 | A (A (>90% o degradation)) | 100 to 500 | A (A (>90% degradation)) | < 100 | – | – | – |
| Cc1ncsc1-c1ccc(CNC(=O)[C@@H]2C[C@@H](O)CN2C(=O)C(c2cc(OCCCOCCCN3CCC(Cn4cc(-c5cc(-c6ccccc6O)nnc5N)cn4)CC3)no2)C(C)C)cc1 (stereo partly drawn) [I-21, (2S,4R)-1-(2-(3-(3-(3-(4-((4-(3-amino-6-(2-hydroxyphenyl)pyridazin-4-yl)-1H-pyrazol-1-yl)methyl)piperidin-1-yl)propoxy)propoxy)isoxazol-5-yl)-3-methylbutanoyl)-4-hydroxy-N-(4-(4-methylthiazol-5-yl)benzyl)pyrrolidine-2-carboxamide] | – | 501 to 1000 | – | > 1000 | – | < 100 | 70 to 90 | > 90 | > 90 |
| Cc1ncsc1-c1ccc(CNC(=O)[C@@H]2C[C@@H](O)CN2C(=O)C(c2cc(OCCN3CCC(O[C@H]4C[C@H](Oc5cc(N6C7CCC6CN(c6cc(-c8ccccc8O)nnc6N)C7)ccn5)C4)CC3)no2)C(C)C)cc1 (stereo partly drawn) [I-22, (2S,4R)-1-(2-(3-(2-(4-((1r,3r)-3-((4-(3-(3-amino-6-(2-hydroxyphenyl)pyridazin-4-yl)-3,8-diazabicyclo[3.2.1]octan-8-yl)pyridin-2-yl)oxy)cyclobutoxy)piperidin-1-yl)ethoxy)isoxazol-5-yl)-3-methylbutanoyl)-4-hydroxy-N-(4-(4-methylthiazol-5-yl)benzyl)pyrrolidine-2-carboxamide] | – | > 1000 | – | 501 to 1000 | – | < 100 | > 90 | > 90 | 70 to 90 |
| Cc1ncsc1-c1ccc(CNC(=O)[C@@H]2C[C@@H](O)CN2C(=O)[C@@H](NC(=O)[C@H]2CC3(C2)C[C@H](N2CCC(c4ccc(N5C6CCC5CN(c5cc(-c7ccccc7O)nnc5N)C6)cc4)CC2)C3)C(C)(C)C)nc1 (stereo partly drawn) [I-23, (2S,4R)-1-((2S)-2-(6-(4-(4-(3-(3-amino-6-(2-hydroxyphenyl)pyridazin-4-yl)-3,8-diazabicyclo[3.2.1]octan-8-yl)phenyl)piperidin-1-yl)spiro[3.3]heptane-2-carboxamido)-3,3-dimethylbutanoyl)-4-hydroxy-N-((5-(4-methylthiazol-5-yl)pyridin-2-yl)methyl)pyrrolidine-2-carboxamide] | – | > 1000 | – | > 1000 | – | 100 to 500 | < 50 | < 50 | < 50 |
| Cc1ncsc1-c1ccc(CNC(=O)[C@@H]2C[C@@H](O)CN2C(=O)[C@@H](NC(=O)[C@H]2CC3(C2)C[C@H](N2CCC(c4ccc(N5C6CCC5CN(c5cc(-c7ccccc7O)nnc5N)C6)cc4)CC2)C3)C(C)(C)C)nc1 (stereo partly drawn) [I-24, (2S,4R)-1-((2S)-2-(6-(4-(4-(3-(3-amino-6-(2-hydroxyphenyl)pyridazin-4-yl)-3,8-diazabicyclo[3.2.1]octan-8-yl)phenyl)piperidin-1-yl)spiro[3.3]heptane-2-carboxamido)-3,3-dimethylbutanoyl)-4-hydroxy-N-((5-(4-methylthiazol-5-yl)pyridin-2-yl)methyl)pyrrolidine-2-carboxamide] | – | > 1000 | – | > 1000 | – | 100 to 500 | – | – | – |
| Cc1ncsc1-c1cnc(CNC(=O)[C@@H]2C[C@@H](O)CN2C(=O)[C@@H](NC(=O)[C@H]2CC3(C2)C[C@H](N2CCC(c4ccc(N5C6CCC5CN(c5cc(-c7ccccc7O)nnc5N)C6)cc4)CC2)C3)C(C)(C)C)nc1 (stereo partly drawn) [I-25, (2S,4R)-1-((2S)-2-(6-(4-(4-(3-(3-amino-6-(2-hydroxyphenyl)pyridazin-4-yl)-3,8-diazabicyclo [3.2.1]octan-8-yl)phenyl)piperidin-1-yl)spiro[3.3]heptane-2-carboxamido)-3,3-dimethylbutanoyl)-4-hydroxy-N-((5-(4-methylthiazol-5-yl)pyrimidin-2-yl)methyl)pyrrolidine-2-carboxamide] | – | > 1000 | – | > 1000 | – | > 1000 | < 50 | < 50 | < 50 |
| Cc1ncsc1-c1ccc(CNC(=O)[C@@H]2C[C@@H](O)CN2C(=O)[C@@H](NC(=O)[C@H]2CC3(C2)C[C@H](N2CCC(c4ccc(N5C6CCC5CN(c5cc(-c7ccccc7O)nnc5N)C6)cc4)CC2)C3)C(C)(C)C)cn1 (stereo partly drawn) [I-27, (2S,4R)-1-((2S)-2-(6-(4-(4-(3-(3-amino-6-(2-hydroxyphenyl)pyridazin-4-yl)-3,8-diazabicyclo[3.2.1]octan-8-yl)phenyl)piperidin-1-yl)spiro[3.3]heptane-2-carboxamido)-3,3-dimethylbutanoyl)-4-hydroxy-N-((6-(4-methylthiazol-5-yl)pyridin-3-yl)methyl)pyrrolidine-2-carboxamide] | – | > 1000 | – | > 1000 | – | 100 to 500 | < 50 | < 50 | < 50 |
| Cc1ncsc1-c1ccc(CNC(=O)[C@@H]2C[C@@H](O)CN2C(=O)[C@@H](NC(=O)[C@H]2CC3(C2)C[C@H](N2CCC(c4ccc(N5C6CCC5CN(c5cc(-c7ccccc7O)nnc5N)C6)cc4)CC2)C3)C(C)(C)C)cn1 (stereo partly drawn) [I-28, (2S,4R)-1-((2S)-2-(6-(4-(4-(3-(3-amino-6-(2-hydroxyphenyl)pyridazin-4-yl)-3,8-diazabicyclo[3.2.1]octan-8-yl)phenyl)piperidin-1-yl)spiro[3.3]heptane-2-carboxamido)-3,3-dimethylbutanoyl)-4-hydroxy-N-((6-(4-methylthiazol-5-yl)pyridin-3-yl)methyl)pyrrolidine-2-carboxamide] | – | > 1000 | – | > 1000 | – | 100 to 500 | – | – | – |
| Cc1ncsc1-c1cnc(CNC(=O)[C@@H]2C[C@@H](O)CN2C(=O)[C@@H](NC(=O)[C@H]2CC3(C2)C[C@H](N2CCC(c4ccc(N5C6CCC5CN(c5cc(-c7ccccc7O)nnc5N)C6)cc4)CC2)C3)C(C)(C)C)cn1 (stereo partly drawn) [I-29, (2S,4R)-1-((2S)-2-(6-(4-(4-(3-(3-amino-6-(2-hydroxyphenyl)pyridazin-4-yl)-3,8-diazabicyclo[3.2.1]octan-8-yl)phenyl)piperidin-1-yl)spiro[3.3]heptane-2-carboxamido)-3,3-dimethylbutanoyl)-4-hydroxy-N-((5-(4-methylthiazol-5-yl)pyrazin-2-yl)methyl)pyrrolidine-2-carboxamide] | – | > 1000 | – | > 1000 | – | > 1000 | 50 to 70 | < 50 | < 50 |
| Cc1n[nH]c(C)c1-c1ccc(CNC(=O)[C@@H]2C[C@@H](O)CN2C(=O)[C@@H](NC(=O)[C@H]2CC3(C2)C[C@H](N2CCC(c4cnc(N5C6CCC5CN(c5cc(-c7ccccc7O)nnc5N)C6)nc4)CC2)C3)C(C)(C)C)cc1 (stereo partly drawn) [I-31, (2S,4R)-1-((2S)-2-(6-(4-(2-(3-(3-amino-6-(2-hydroxyphenyl)pyridazin-4-yl)-3,8-diazabicyclo[3.2.1]octan-8-yl)pyrimidin-5-yl)piperidin-1-yl)spiro[3.3]heptane-2-carboxamido)-3,3-dimethylbutanoyl)-N-(4-(3,5-dimethyl-1H-pyrazol-4-yl)benzyl)-4-hydroxypyrrolidine-2-carboxamide] | – | > 1000 | – | – | – | < 100 | < 50 | < 50 | 50 to 70 |
| Cc1n[nH]c(C)c1-c1ccc(CNC(=O)[C@@H]2C[C@@H](O)CN2C(=O)[C@@H](NC(=O)[C@H]2CC3(C2)C[C@H](N2CCC(c4cnc(N5C6CCC5CN(c5cc(-c7ccccc7O)nnc5N)C6)nc4)CC2)C3)C(C)(C)C)cc1 (stereo partly drawn) [I-32, (2S,4R)-1-((2S)-2-(6-(4-(2-(3-(3-amino-6-(2-hydroxyphenyl)pyridazin-4-yl)-3,8-diazabicyclo[3.2.1]octan-8-yl)pyrimidin-5-yl)piperidin-1-yl)spiro[3.3]heptane-2-carboxamido)-3,3-dimethylbutanoyl)-N-(4-(3,5-dimethyl-1H-pyrazol-4-yl)benzyl)-4-hydroxypyrrolidine-2-carboxamide] | D (D (<50% degradation)) | > 1000 | D (D (<50% degradation)) | – | D (D (<50% degradation)) | 100 to 500 | – | – | – |
